The melting point is the temperature of the solid-liquid transition.

Series [1] relates to soluble epoxide hydrolase (sEH). Put plainly: Fluorescent assay for mouse and human soluble epoxide hydrolase (CMNPC substrate). It is filed as biochemical. To be noted: Conc 200 nM; recombinant sEH, CMNPC 5 μM, 30° C.; mouse or human enzyme not stated. An excerpt: Fluorescent Assay for Mouse and Human Soluble Epoxide Hydrolase
Recombinant mouse sEH (MsEH) and human sEH (HsEH) were produced in a baculovirus expression system as previously reported. Grant et al., J. Biol. Chem., 268:17628-17633 (1993); Beetham et al., Arch. Biochem. Biophys., 305:197-201 (1993). The expressed proteins were purified from cell lysate by affinity chromatography. Wixtrom et al., Anal. Biochem., 169:71-80 (1988). Protein concentration was quantified using the Pierce BCA assay using bovine serum albumin as the calibrating standard. The preparations were at least 97% pure as judged by SDS-PAGE and scanning densitometry. They contained no detectable esterase or glutathione transferase activity which can interfere with the assay. The assay was also evaluated with similar results in crude cell lysates or homogenate of tissues.
The IC50s for each inhibitor were according to the following procedure:
Cyano(2-methoxynaphthalen-6-yl)methyl (3-phenyloxiran-2-yl)methyl carbonate (CMNPC; Jones P. D. et. al.; Analytical Biochemistry 2005; 343: pp. 66-75)
Bis/Tris HCl 25 mM pH 7.0 containing 0.1 mg/mL of BSA (buffer A)
CMNPC at 0.25 mM in DMSO.
Mother solution of enzyme in buffer A (Mouse sEH at 6 μg/mL and Human sEH at 5 μg/mL).
Inhibitor dissolved in DMSO at the appropriate concentration.
In a black 96 well plate, fill all the wells with 150 μL of buffer A.
Add 2 μL of DMSO in well A2 and A3, and then add 2 μL of inhibitor solution in A1 and A4 through A12.
Add 150 μL of buffer A in row A, then mix several time and transfer 150 μL to row B. Repeat this operation up to row H. The 150 μL removed from row H go to the trash.
Add 20 μL of buffer A in column 1 and 2, then add 20 μL of enzyme solution to column 3 to 12.
Incubate the plate for 5 minutes in the plate reader at 30° C.
During incubation prepare the working solution of substrate by mixing 3.68 mL of buffer A (4×0.920 mL) with 266 μL (2×133 μL) of substrate solution).
At t=0, add 30 μL of working substrate solution with multi-channel pipette labeled “Briggs 303” and start the reading ([S]final: 5 μM).
Read with ex: 330 nm (20 nm) and em: 465 nm (20 nm) every 30 second for 10 minutes. The velocities are used to analyze and calculate the IC50s.

As to `O=C(NCC1CCOCC1)NC12CC3CC(CC(C3)C1)C2` [Compound 1, 1-adamantan-1-yl-3-((tetrahydro-2H-pyran-4-yl)methyl)urea], the melting point fell in the range of 196 to 198 °C. In series [1], the “% Inh (percent inhibition)” value is 89%.

The compound `O=C(NCC1CCOCC1)Nc1ccc(C(F)(F)F)cc1` [Compound 2, 1-((tetrahydro-2H-pyran-4-yl)methyl)-3-(4-(trifluoromethyl)phenyl)urea] had a melting point of 148 to 149 °C. Also, the “% Inh (percent inhibition)” value in series [1] is reported as 70%.

In turn, `O=C(Nc1ccc(C(F)(F)F)cc1)NC1CCOCC1` [Compound 3, 1-(tetrahydro-2H-pyran-4-yl)-3-(4-(trifluoromethyl)phenyl)urea] displayed a melting point of 196 to 198 °C. In addition, the “% Inh (percent inhibition)” value in series [1] stood at 91%.

Compound `O=C(Nc1ccc(C(F)(F)F)cc1)NC1CCS(=O)(=O)CC1` [Compound 4, 1-(1,1-dioxo-tetrahydro-2H-thiopyran-4-yl)-3-(4-(trifluoromethyl)phenyl)urea] returned a melting point of 196 to 198 °C. Also, in series [1], the “% Inh (percent inhibition)” value is recorded as 92%.

In turn, `CC1(C)CC(NC(=O)Nc2ccc(C(F)(F)F)cc2)CC(C)(C)C1=O` [Compound 5, 1-(3,3,5,5-tetramethyl-4-oxocyclohexyl)-3-(4-(trifluoromethyl)phenyl)urea] registered a melting point of 152 to 153 °C. In addition, the “% Inh (percent inhibition)” value in series [1] is listed as 98%.

In turn, `CC1(C)CC(NC(=O)NC23CC4CC(CC(C4)C2)C3)CC(C)(C)C1=O` [Compound 6, 1-adamantan-1-yl-3-(3,3,5,5-tetramethyl-4-oxocyclohexyl)urea] registered a melting point of 234 to 238 °C. The “% Inh (percent inhibition)” value in series [1] is listed as 100%.

For the compound `O=C(NC1CCS(=O)(=O)CC1)NC12CC3CC(CC(C3)C1)C2` [Compound 7, 1-adamantan-1-yl-3-(1,1-dioxo-tetrahydro-2H-thiopyran-4-yl)urea], the melting point is 244 to 246 °C. In addition, in series [1], the “% Inh (percent inhibition)” value was 82%.

Take `O=C(NC1CCOCC1)NC12CC3CC(CC(C3)C1)C2` [Compound 8, 1-adamantan-1-yl-3-(tetrahydro-2H-pyran-4-yl)urea]: the melting point lay within 239 to 242 °C. In addition, the “% Inh (percent inhibition)” value in series [1] worked out at 90%.

Values taken from patent US20090082423A1, “SOLUBLE EPOXIDE HYDROLASE INHIBITORS” (Arete Therapeutics, Inc., priority 2007, published 2009).
